From patent publication US20130345205A1, “SUBSTITUTED BICYCLIC ARALKYL PYRAZOLE LACTAM ANALOGS AS ALLOSTERIC MODULATORS OF MGLUR5 RECEPTORS” (Vanderbilt University, priority 2012, published 2013)

Legend:
human mGluR5 = human mGluR5 (Homo sapiens, UniProt P41594); assay: Cell-based functional Ca2+ mobilization assay (FDSS), potentiation of glutamate EC20 response; conditions: H10H cell-line (HEK, recombinant human mGluR5); for Emax: glutamate EC20, maximum average response at a single concentration, percent of maximal glutamate response; for EC50: positive allosteric modulation in presence of glutamate EC20, concentration in mol/L
Chain of human mGluR5 (P41594 21-1180 isoform P41594-2 limits assumed): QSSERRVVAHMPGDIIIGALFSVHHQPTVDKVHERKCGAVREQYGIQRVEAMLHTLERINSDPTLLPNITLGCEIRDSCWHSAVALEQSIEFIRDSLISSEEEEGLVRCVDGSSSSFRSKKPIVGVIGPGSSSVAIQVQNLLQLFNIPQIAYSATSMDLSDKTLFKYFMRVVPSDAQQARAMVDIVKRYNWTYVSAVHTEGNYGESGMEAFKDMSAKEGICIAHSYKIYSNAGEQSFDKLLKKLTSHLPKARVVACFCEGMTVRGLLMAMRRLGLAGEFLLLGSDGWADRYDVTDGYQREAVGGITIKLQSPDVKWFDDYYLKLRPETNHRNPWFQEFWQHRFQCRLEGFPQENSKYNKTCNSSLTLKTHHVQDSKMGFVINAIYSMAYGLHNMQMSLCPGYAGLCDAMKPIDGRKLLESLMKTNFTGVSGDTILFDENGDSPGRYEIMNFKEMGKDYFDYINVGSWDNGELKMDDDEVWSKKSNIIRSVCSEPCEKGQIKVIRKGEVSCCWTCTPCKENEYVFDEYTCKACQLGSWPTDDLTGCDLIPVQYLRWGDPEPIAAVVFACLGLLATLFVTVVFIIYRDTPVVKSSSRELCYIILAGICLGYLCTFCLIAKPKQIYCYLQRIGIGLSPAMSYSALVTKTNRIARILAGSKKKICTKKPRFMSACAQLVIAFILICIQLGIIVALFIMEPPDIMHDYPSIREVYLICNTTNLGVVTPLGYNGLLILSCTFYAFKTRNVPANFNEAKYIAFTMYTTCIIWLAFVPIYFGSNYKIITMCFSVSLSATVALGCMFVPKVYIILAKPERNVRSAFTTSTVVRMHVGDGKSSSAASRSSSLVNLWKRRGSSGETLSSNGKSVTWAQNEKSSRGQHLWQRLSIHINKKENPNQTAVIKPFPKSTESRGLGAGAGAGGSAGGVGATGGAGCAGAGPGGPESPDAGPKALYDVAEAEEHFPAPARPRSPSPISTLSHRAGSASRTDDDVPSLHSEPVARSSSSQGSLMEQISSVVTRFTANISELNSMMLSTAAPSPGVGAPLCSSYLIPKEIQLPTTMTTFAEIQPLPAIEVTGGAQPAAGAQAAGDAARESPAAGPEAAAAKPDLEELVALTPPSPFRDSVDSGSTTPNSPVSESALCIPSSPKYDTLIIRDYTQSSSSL
Source text: Human mGluR5a cDNA in pCMV6-XL6 mammalian expression plasmid was purchased from OriGene Technologies, Inc. (catalogue number SC326357) and subcloned into pcDNA3.1(−). Human embryonic kidney (HEK) 293A cells were then transfected with human mGluR5a pcDNA3.1(−) using LipofectAmine2000 (Invitrogen) and monoclones were selected and tested for functional response using a Ca^2+ mobilization assay. Monoclones were named for the species (“H” for human) plus the location on the plate (e.g. “10H”).
HEK cells transfected with the human mGluR5a receptor (H10H or H12H cell line) were plated at 15,000 cells/well in clear-bottomed poly-D-lysine-coated assay plates (BD Falcon) in glutamate-glutamine-free growth medium and incubated overnight at 37° C. and 5% CO2. Cell-lines used were either the H10H or H12H cell-lines expressing the human mGluR5 receptor. The following day, the growth medium was removed and the cells were washed with assay buffer containing 1× Hank's balanced salt solution (Invitrogen, Carlsbad, Calif.), 20 mM HEPES, 2.5 mM probenecid, pH 7.4 and left with 20 μL of this reagent. Following this step, the cells were loaded with calcium indicator dye, fluo-4 AM, to a final concentration of 2 μM and incubated for 40-45 min at 37° C. The dye solution was removed and replaced with assay buffer. Cell plates were held for 10-15 min at room temperature and were then loaded into the Functional Drug Screening System 6000 (FDSS 6000, Hamamatsu, Japan).
After establishment of a fluorescence baseline for about 3 seconds, the compounds of the present invention were added to the cells, and the response in cells was measured. 2.3 minutes later an EC20 concentration of the mGluR5 receptor agonist glutamate was added to the cells, and the response of the cells was measured for about 1.7 minutes. All test compounds were dissolved and diluted to a concentration of 10 mM in 100% DMSO and then serially diluted into assay buffer for a 2× stock solution in 0.6% DMSO; stock compounds were then added to the assay for a final DMSO concentration of 0.3% after the first addition to the assay well. Calcium fluorescence measures were recorded as fold over basal fluorescence; raw data was then normalized to the maximal response to glutamate. Potentiation of the agonist response of the mGluR5 receptor in the present invention was observed as an increase in response to submaximal concentrations of glutamate in the presence of compound compared to the response to glutamate in the absence of compound.
The concentration-response curves of compounds of the present invention, obtained in the presence of EC20 of mGluR5 receptor agonist glutamate to determine positive allosteric modulation, were generated using Microsoft Excel with IDBS XLFit add-ins. The raw data file containing all time points was used as the data source in the analysis template. This was saved by the FDSS as a tab-delimited text file. Data were normalized using a static ratio function (F/F0) for each measurement of the total 350 values per well divided by each well's initial value. Data was then reduced as to peak amplitudes (Max-Initial Min) using a time range that starts approximately 1 second after the glutamate EC20 addition and continues for approximately 40 seconds. This is sufficient time to capture the peak amplitude of the cellular Calcium response. Individual amplitudes were expressed as % EMax by multiplying each amplitude by 100 and then dividing the product by the mean of the amplitudes derived from the glutamate ECMax-treated wells. pEC50 values for test compounds were generated by fitting the normalized values versus the log of the test compound concentration (in mol/L) using a 4 parameter logistic equation where none of the parameters were fixed. Each of the three values collected at each concentration of test compound were weighted evenly. Individual values falling outside the 95% prediction limits of the curve fit were automatically excluded from the fit. […]

Emax (human mGluR5)	EC50 (human mGluR5)	melting point	Structure (SMILES)
30%	> 10000 nM	117.1 °C	COc1ccc(CN2CCn3nc(COc4ccnc(C)c4)cc3C2=O)cc1 [Example B33]
17%	> 31600 nM	164.8 °C	COc1ccc(CN2CCn3nc(COc4cc(C)nc(C)c4)cc3C2=O)cc1 [Example B35]
65%	107 nM	82.5 °C	COc1cccc(CN2CCn3nc(COc4ccccc4)cc3C2=O)c1 [Example B36]
66%	178 nM	112.6 °C	CC1(C)CN(Cc2ccccc2)C(=O)c2cc(COc3ccccc3)nn21 [Example B45]
75%	26.3 nM	111.2 °C	O=C1c2cc(COc3ccccc3)nn2CCN1Cc1ccccc1Cl [Example B46]
76%	55 nM	218 °C	O=C1c2cc(COc3ccccc3)nn2CCN1Cc1cccc(Cl)c1 [Example B47]
65%	155 nM	169 °C	O=C1c2cc(COc3ccccc3)nn2CCN1Cc1ccc(Cl)cc1 [Example B48]
39%	759 nM	75.4 °C	Cc1ccnc(OCc2cc3n(n2)CCN(Cc2ccccc2)C3=O)c1 [Example B62]
70%	33.9 nM	189.6 °C	Cc1ccccc1CN1CCn2nc(COc3ccccc3)cc2C1=O [Example B63]
61%	47.9 nM	95.3 °C	Cc1cccc(CN2CCn3nc(COc4ccccc4)cc3C2=O)c1 [Example B64]
75%	145 nM	164.9 °C	Cc1ccc(CN2CCn3nc(COc4ccccc4)cc3C2=O)cc1 [Example B65]
64%	204 nM	132.1 °C	COc1cc(CN2CCn3nc(COc4ccccc4)cc3C2=O)ccc1F [Example B66]
68%	195 nM	87.6 °C	COc1cccc(F)c1CN1CCn2nc(COc3ccccc3)cc2C1=O [Example B67]
65.5%	17.8 nM	116 °C	COc1c(Cl)cccc1CN1CCn2nc(COc3ccccc3)cc2C1=O [Example B68]
69%	209 nM	104.2 °C	O=C1c2cc(COc3ccccc3F)nn2CCN1Cc1ccccc1 [Example B69]
73%	525 nM	96 °C	COc1cncc(CN2CCn3nc(COc4ccccc4)cc3C2=O)n1 [Example B71]
81%	229 nM	117.4 °C	N#Cc1cccc(CN2CCn3nc(COc4ccccc4)cc3C2=O)c1 [Example B72]
69%	95.5 nM	71.8 °C	CN(C)c1cccc(CN2CCn3nc(COc4ccccc4)cc3C2=O)n1 [Example B74]
71%	1150 nM	132.4 °C	COc1cccnc1CN1CCn2nc(COc3ccccc3)cc2C1=O [Example B75]
66%	2290 nM	120.4 °C	Cc1cncc(CN2CCn3nc(COc4ccccc4)cc3C2=O)n1 [Example B77]

Emax (human mGluR5)	EC50 (human mGluR5)	melting point	Structure (SMILES)
70%	295 nM	114.2 °C	Cc1nc(CN2CCn3nc(COc4ccccc4)cc3C2=O)ccc1F [Example B78]
75.5%	355 nM	129.8 °C	Cc1cc(CN2CCn3nc(COc4ccccc4)cc3C2=O)ncc1F [Example B82]
77%	417 nM	117.2 °C	O=C1c2cc(COc3ccccc3)nn2CCN1Cc1ncccc1F [Example B83]
70%	1740 nM	> 300 °C	Cc1nccc(CN2CCn3nc(COc4ccccc4)cc3C2=O)n1 [Example B84]
69.5%	447 nM	147.4 °C	Cc1cccc(CN2CCn3nc(COc4ccc(F)cc4)cc3C2=O)n1 [Example B85]
71.5%	302 nM	107.6 °C	Cc1cccc(CN2C(=O)c3cc(COc4ccccc4)nn3C[C@H]2C)n1 [Example B86]
80%	275 nM	166.4 °C	C[C@@H]1Cn2nc(COc3ccccc3)cc2C(=O)N1Cc1ncccc1Cl [Example B87]
71%	93.3 nM	268.8 °C	O=C1c2cc(COc3ccc(F)cc3)nn2CCN1Cc1ncccc1Cl [Example B88]
66%	955 nM	187.5 °C	Cc1cc(CN2CCn3nc(COc4ccccc4)cc3C2=O)no1 [Example B89]
69%	67.6 nM	105.8 °C	O=C1c2cc(COc3ccccc3)nn2CCN1Cc1nc2ccccc2s1 [Example B91]
65%	282 nM	145.4 °C	O=C1c2cc(COc3ccccc3)nn2CCN1Cc1nc2ccccc2o1 [Example B92]
73%	25.7 nM	131.3 °C	O=C1c2cc(COc3ccccc3)nn2CCN1Cc1cccc2cccnc12 [Example B93]
76%	123 nM	137.6 °C	O=C1c2cc(COc3ccccc3)nn2CCN1Cc1nccc2ccccc12 [Example B94]
75%	372 nM	115.4 °C	O=C1c2cc(COc3ccccc3)nn2CCN1Cc1ccc(C(F)(F)F)nc1 [Example B95]
67%	1000 nM	137.5 °C	Cc1ncccc1CN1CCn2nc(COc3ccccc3)cc2C1=O [Example B96]
65%	417 nM	121.9 °C	Cc1nc(CN2CCn3nc(COc4ccccc4)cc3C2=O)cs1 [Example B97]
72%	> 10000 nM	> 300 °C	Cn1c(CN2CCn3nc(COc4ccccc4)cc3C2=O)nc2ccccc21 [Example B98]
68%	1290 nM	95 °C	COc1ccc(CN2CCn3nc(COc4ccccn4)cc3C2=O)cc1 [Example B101]
63%	324 nM	154.1 °C	COc1nccnc1CN1CCn2nc(COc3cccc(F)c3)cc2C1=O [Example B103]
65%	550 nM	> 300 °C	O=C1c2cc(COc3cccc(F)c3)nn2CCN1Cc1ncccc1F [Example B104]
